Read-outs that look alike come from different tables or passages of the source.
Key:
MCF7 = assay: growth inhibition, 3 days; type: cell-based; conditions: Homo sapiens, MCF7, NF1 WT
Protocol: (§1) MCF7 cells cultured in phenol red-free RPMI1640 medium containing 10% charcoal stripped FBS were transfected with NF1 siRNA to a final concentration of […] using Lipofectamine RNAiMAX. The cells were then incubated for 1 day at 37° C., 5% CO2. After that, E2 (estrogen) was added to the medium at 1 nmol/L final concentration, and the cells were cultured for 3 days, after which the cells were collected and cell extracts were prepared.
(§2) To investigate the growth inhibition effect of Compound (1) on the NF1-depleted ER+/HER2− breast cancer cells, MCF7 and T47D, the serially diluted Compound (1) was exposed to the cells for 3 days as in the previous experiment.
(§3) The growth inhibition curve in MCF7 and T47D cells were obtained and the half maximal inhibitory concentration (IC50) value of growth inhibition were calculated as shown in Table 1.

MCF7_NF1KD = assay: growth inhibition, 3 days; type: cell-based; conditions: Homo sapiens
Protocol: as §1, §2, §3

T47D = assay: growth inhibition, 3 days; type: cell-based; conditions: Homo sapiens, NF1 WT
Protocol: as §1, §2, §3

T47D_NF1KD = assay: growth inhibition, 3 days; type: cell-based
Protocol: as §1, §2, §3

[1] = tested on: LU65 human lung tumor xenografts; assay: antitumor effect in mice with LU65 xenograft tumors
Protocol: The tumor volumes and body weights of animals were recorded.

[2] = with estrogen, read-out: IC50 (nmol/L) E2 (+)
[3] = without estrogen, read-out: IC50 (nmol/L) E2 (−)

Work on `CC(C)(C)NCCNc1ccc(-c2nnc(C(F)(F)F)o2)nc1C1CCN(c2ncnc3c2C(C)(C)C(=O)N3)CC1` [Compound (1), 4-(4-(3-((2-(tert-butylamino)ethyl)amino)-6-(5-(trifluoromethyl)-1,3,4-oxadiazol-2-yl)pyridin-2-yl)piperidin-1-yl)-5,5-dimethyl-5H-pyrolo[2,3-d]pyrimidin-6(7H)-one] yielded an IC50 (MCF7; [2]) of 108 nmol/L, an IC50 (MCF7; [3]) of 89 nmol/L and an IC50 (MCF7_NF1KD; [2]) of 188 nmol/L. The IC50 (MCF7_NF1KD; [3]) was 294 nmol/L, the IC50 (T47D; [2]) was 65 nmol/L and the IC50 (T47D; [3]) was 125 nmol/L. For the same compound, the IC50 (T47D_NF1KD; [2]) was 37 nmol/L, the IC50 (T47D_NF1KD; [3]) was 111 nmol/L and the Number of deaths ([1]; 80 mg/kg/day) was 0. The “T/C ratio (%)” value ([1]; 80 mg/kg/day, Day 13) was 75%, the “Tumor volume (mm^3) Day 13 Mean ± SE” value ([1]; 80 mg/kg/day, qd, po) was 1724.3 ± 91.1 mm^3 and the “tolerability (body weight changes)” value ([1]; throughout the study period) was “well tolerated”.

Source: patent US20240408100A1, “TREATMENT METHODS FOR SUBJECTS HAVING CANCER WITH A DYSREGULATED MAPK AND/OR PI3K PATHWAY” (TAIHO PHARMACEUTICAL CO., LTD., priority 2021, published 2024)
